Source: publication PMC3543149 (Diabetologia, 2012)

Molecular target: T1, PKC-ι (Homo sapiens, UniProt P41743)
T1 sequence (P41743 2-596): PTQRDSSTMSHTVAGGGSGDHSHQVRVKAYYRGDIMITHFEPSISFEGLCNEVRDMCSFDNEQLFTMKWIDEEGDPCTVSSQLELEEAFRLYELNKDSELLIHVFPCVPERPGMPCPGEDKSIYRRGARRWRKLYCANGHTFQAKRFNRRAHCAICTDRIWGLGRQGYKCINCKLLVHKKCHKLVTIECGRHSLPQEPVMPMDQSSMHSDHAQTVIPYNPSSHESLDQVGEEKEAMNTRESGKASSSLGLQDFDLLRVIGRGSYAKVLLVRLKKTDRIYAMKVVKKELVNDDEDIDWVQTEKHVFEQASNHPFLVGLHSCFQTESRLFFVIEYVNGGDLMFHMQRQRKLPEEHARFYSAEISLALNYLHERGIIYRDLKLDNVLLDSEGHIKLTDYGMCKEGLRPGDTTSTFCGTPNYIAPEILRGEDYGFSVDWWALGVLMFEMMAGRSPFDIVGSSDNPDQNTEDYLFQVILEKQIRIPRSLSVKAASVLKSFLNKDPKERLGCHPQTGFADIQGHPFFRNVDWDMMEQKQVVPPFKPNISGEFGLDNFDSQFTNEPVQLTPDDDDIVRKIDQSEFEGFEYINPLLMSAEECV
Assay: […]-ATP kinase assay of recombinant PKC-ι activated by PIP3, dose response
Format: biochemical

IC50: 10 to 100 nM
Compound: NC(=O)c1ncn([C@@H]2C[C@H](COP(=O)(O)O)[C@@H](O)[C@H]2O)c1N [ICAPP]
